“And” between values parts separate entries of the source, which are not always exact repeats. Equal entries are not always repeated.
Tests used:
[1] = Partition of pHS between organic solvent and aqueous medium, two-phase flask fermentation; assay type: physicochemical; details: 15 h, 35° C.
Description: Samples were analyzed for tyrosine, phenylalanine, CA, pHCA, and pHS using reverse-phase chromatography with an Agilent HP1100 HPLC system equipped with an autosampler, diode-array detector, and ChemStation for data acquisition and processing (Agilent Technologies, Inc., Wilmington, Del.). The analyses were done using a 4.6 mm×15 cm Zorbax SB-C18 column (3.5 μm particle size), obtained from Agilent Technologies, Inc., thermostated at 35° C. The samples were run using a flow rate of 1.0 mL/min with an eight-minute solvent gradient from 5% acetonitrile/water, containing 0.1% trifluoroacetic acid, to 80% acetonitrile/water, containing 0.1% trifluoroacetic acid. A diode-array detector set at 210, 260, and 280 nm was used to detect the various compounds at their optimum absorbance wavelength.
The aqueous samples were diluted 1:3 with water, while the organic samples were diluted 1:3 with acetonitrile before injection of 50 μL of the sample into the HPLC. A standard mixture of the analytes was prepared by mixing equal portions of solutions of the individual components, each at a concentration of 1 mg/mL.
The strain used in this study was E. coli WWQ51.1, as described in Example 3. […] The OD550, pH, glucose concentration and the pHS concentration of the aqueous phases were measured as described in Example 3. The organic phases were analyzed for pHS using HPLC, as described supra.

[2] = tested on: P. putida strain S12 (ATCC No. 700801); assay: Effect of pHS on the growth of Pseudomonas putida; assay type: cell-based; details: for Growth Rate, %: percentage of growth without pHS
Description: This study was done using P. putida strain S12 (ATCC No. 700801), obtained from the American Type Culture Collection. This P. putida strain was grown at 30° C. in 20 mL of LB medium containing 0.25% glucose and 10 mM MgSO4 in a 125 mL baffled flask until stationary phase was achieved. Aliquots from this stationary phase culture were plated on LB agar plates containing 0.25% glucose, 10 mM MgSO4, and 1 g/L pHS, and incubated at 30° C. for several days. Colonies from these plates were streaked on identical plates and grown as described above. An individual colony from these plates was used to inoculate 20 mL of liquid LB medium containing 0.5% glucose, 10 mM MgSO4 and 1 g/L pHS. This culture was grown in a 125 mL baffled flask at 30° C. and 200 rpm in an incubator shaker until stationary phase was achieved. These stationary phase cells (0.5 mL) were added to 20 mL of a test medium consisting of LB medium, 0.5% glucose, 10 mM MgSO4 and either 0, 1.0, or 1.25 g/L pHS. These cultures were grown in 125 mL baffled flasks at 30° C. and 200 rpm in an incubator shaker. Cell growth in these cultures was monitored by taking aliquots, diluting them with an equal volume of 1,2-propanediol, and measuring the OD at 600 nm. These OD measurements were used to calculate the doubling time and growth rate as a percentage of growth observed in the test medium without pHS.

E. coli WWQ51.1 = assay: Growth of E. coli with added pHS in two-phase fermentation; assay type: cell-based; details: 0.5 mL pHS (10% w/v) added; 20 mL 2-Undecanone; IPTG 0.5 mM
Description: The strain used in this study was E. coli WWQ51.1, as described in Example 3. The conditions were similar to those described in Example 3. Eight test cultures were inoculated; six contained 20 mL of 2-undecanone, the other two contained 20 mL of 1-undecanol. A 10% w/v solution of pHS in propylene glycol (0.5 mL), obtained from Sigma-Aldrich, Milwaukee, Wis., was added to two of the cultures containing 2-undecanone, as specified in Table 7.
The cultures were incubated in 250 mL baffled flasks at 35° C. and 300 rpm for 24 h in an incubator shaker. After this time, a sample of the aqueous phase was withdrawn and the pH, OD550, and the concentration of the fermentation products were measured, as described supra. The organic phase was also sampled and the concentration of CA and pHS were determined using HPLC, as described supra.

E. coli TY1 (DGL430) = assay: Effect of pHCA and pHS on growth and fermentation of E. coli, shake flasks; assay type: cell-based; details: E. coli TY1 shake flask
Description: This study was done using E. coli TY1 (DGL430), a tyrosine overproducing strain obtained from OmniGene Bioproducts, Inc. (Cambridge, Mass.). This strain also produces phenylalanine. The seed culture of this strain was propagated in a medium consisting of MgSO4.7H2O (0.5 g/L), (NH4)2SO4 (4 g/L), MOPS (20.9 g/L) and 10 mL of phosphate solution. The pH of the seed medium was adjusted to pH 6.8 and then the medium was steam-sterilized. The phosphate solution contained KH2PO4 (57.3 g/L) and K2HPO4 (110.2 g/L) and was adjusted to pH 6.8. The following solutions were then aseptically added to the seed medium to give the final concentration given in parentheses: thiamine (1 mg/L), glucose (1 g/L), lactose (15 g/L), 5 mL of a trace element solution, and tetracycline (5 mg/L). The trace element solution contained citric acid (10 g/L), CaCl2.2H2O (1.5 g/L), FeSO4.7H2O (5 g/L), ZnSO4.7H2O (0.39 g/L) and CuSO4.5H2O (0.38 g/L). The seed medium was inoculated from a frozen pre-seed culture and was grown in 250 mL baffled flasks in an Innova 4000 incubator shaker (New Brunswick Scientific Co., Edison, N.J.), incubated at 35° C. and 300 rpm for 12–16 h. One milliliter of this seed culture was used to inoculate each of the test cultures.
The test medium was 50 mL of an aqueous solution containing: (NH4)2SO4 (4 g), 1 mL of phosphate solution, MgSO4.7H2O (0.5 g), and MOPS (20.9 g), with the pH adjusted to 7.0. After sterilization of this medium, thiamine (1 mg/L), 5 mL of trace element solution, glucose (2 g/L), lactose (15 g/L), IPTG (0.5 mM), and tetracycline (10 mg/L) were aseptically added to give the final concentration given in parentheses. The 250 mL baffled flasks containing 50 mL of the test medium were inoculated with the seed culture and were incubated at 35° C. and 300 rpm for 42 h in the incubator shaker. Samples of the culture were taken at various times and the optical density at 550 nm (OD550) was measured spectrophotometrically. The pH of these samples was also measured. After completion of the fermentation, the tyrosine and phenylalanine concentrations in the culture were measured using HPLC, as described supra.
This experiment was repeated using pHS in place of pHCA.

For C=Cc1ccc(O)cc1 [pHS, para-hydroxystyrene], the “pHS Partition coeff” value ([1]; 20 mL 2-undecanone / 50 mL test medium) was 20 and 23, the “pHS Partition coeff” value ([1]; 20 mL DBE / 50 mL test medium) was 29 and 30 and 31 and the “Doubling Time” value ([2]; pHS 1.0 g/L, pHS-adapted cells, LB medium, 30° C.) was 118 min. For the same compound, the “Growth Rate, %” value ([2]; pHS 1.0 g/L) was 85%, the “Doubling Time” value ([2]; pHS 1.25 g/L) was 111 min and the “Growth Rate, %” value ([2]; pHS 1.25 g/L) was 90%. For the same compound, the “OD550 24 h” value (E. coli WWQ51.1) was 15.7 and 12.5, the “concentration at which complete inhibition of growth / no growth was observed” value (E. coli TY1 (DGL430)) was 0.4 g/L and the “concentration that inhibited cell growth” value (E. coli TY1 (DGL430)) was 0.2 g/L.
